From ChEMBL document CHEMBL3868586, “Mansoins C-F, Oligomeric Flavonoid Glucosides Isolated from Mansoa hirsuta Fruits with Potential Anti-inflammatory Activity” (J Nat Prod, 2016)
Active and inactive are the calls of the source. The calls are words filed in the database; no cut-off is given here.

Columns and labels:
[1] = target: T1, Transcription factor p65 (Homo sapiens, UniProt Q04206); experiment: Inhibition of LPS-induced NF-kappa-B p65 phosphorylation in human THP1 cells at 50 uM preincubated for 3 hrs followed by LPS stimulation for 18 hrs; details: THP-1
[2] = target: T1, Transcription factor p65; experiment: Inhibition of NF-kappa-B p65 in human THP1 cells assessed reduction in phosphorylated p65 levels at 50 uM preincubated for 3 hrs followed by LPS stimulation after 18 hrs by Western blot analysis; format: cell-based; details: THP-1
[3] = target: T1, Transcription factor p65; experiment: Inhibition of NF-kappa-B p65 in human THP1 cells assessed as suppression of LPS-induced TNFalpha release preincubated for 3 hrs followed by LPS stimulation by ELISA; format: cell-based, THP-1

T1 sequence (Q04206 whole entry): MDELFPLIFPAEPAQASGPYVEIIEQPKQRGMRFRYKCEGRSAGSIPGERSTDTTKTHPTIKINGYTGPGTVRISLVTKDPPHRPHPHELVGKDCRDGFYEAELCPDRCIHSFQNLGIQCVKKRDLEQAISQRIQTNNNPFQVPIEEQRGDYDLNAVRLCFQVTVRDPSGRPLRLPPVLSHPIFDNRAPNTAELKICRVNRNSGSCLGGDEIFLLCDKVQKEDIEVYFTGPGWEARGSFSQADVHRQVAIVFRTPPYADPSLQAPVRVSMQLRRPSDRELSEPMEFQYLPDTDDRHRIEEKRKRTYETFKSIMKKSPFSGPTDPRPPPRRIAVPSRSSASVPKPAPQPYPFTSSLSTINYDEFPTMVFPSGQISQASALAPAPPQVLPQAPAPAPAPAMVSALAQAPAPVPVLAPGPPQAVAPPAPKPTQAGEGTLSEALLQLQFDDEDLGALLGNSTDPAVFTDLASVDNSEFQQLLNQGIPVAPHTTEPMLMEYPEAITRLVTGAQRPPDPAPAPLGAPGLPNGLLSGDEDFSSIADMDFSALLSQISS

| inhibition [1] | inhibition [2] | IC50 [3] | SMILES |
| --- | --- | --- | --- |
| Active | Active | – | O=C1C[C@@H](c2ccc(O)c(O[C@@H]3O[C@H](CO)[C@@H](O)[C@H](O)[C@H]3O)c2)Oc2c1c(O)c([C@H](CCc1ccc(O)cc1)c1ccc(O)cc1O[C@@H]1O[C@H](CO)[C@@H](O)[C@H](O)[C@H]1O)c(O)c2[C@@H](CCc1ccc(O)cc1)c1ccc(O)cc1O[C@@H]1O[C@H](CO)[C@@H](O)[C@H](O)[C@H]1O |
| Active | Active | 19.3 µM | O=C1C[C@@H](c2ccc(O)c(O[C@@H]3O[C@H](CO)[C@@H](O)[C@H](O)[C@H]3O)c2)Oc2c1c(O)c([C@H](CCc1ccc(O[C@@H]3O[C@H](CO)[C@@H](O)[C@H](O)[C@H]3O)cc1)c1ccc(O[C@@H]3O[C@H](CO)[C@@H](O)[C@H](O)[C@H]3O)cc1O[C@@H]1O[C@H](CO)[C@@H](O)[C@H](O)[C@H]1O)c(O)c2[C@@H](CCc1ccc(O[C@@H]2O[C@H](CO)[C@@H](O)[C@H](O)[C@H]2O)cc1)c1ccc(O[C@@H]2O[C@H](CO)[C@@H](O)[C@H](O)[C@H]2O)cc1O[C@@H]1O[C@H](CO)[C@@H](O)[C@H](O)[C@H]1O |
